Target: T1, Human TRPV3 expressing CHO cells (Homo sapiens, UniProt Q8NET8)
T1 construct: expressed in transfected cells; host or cells: CHO cells, kept under G-418 selection
T1 sequence (Q8NET8 1-790): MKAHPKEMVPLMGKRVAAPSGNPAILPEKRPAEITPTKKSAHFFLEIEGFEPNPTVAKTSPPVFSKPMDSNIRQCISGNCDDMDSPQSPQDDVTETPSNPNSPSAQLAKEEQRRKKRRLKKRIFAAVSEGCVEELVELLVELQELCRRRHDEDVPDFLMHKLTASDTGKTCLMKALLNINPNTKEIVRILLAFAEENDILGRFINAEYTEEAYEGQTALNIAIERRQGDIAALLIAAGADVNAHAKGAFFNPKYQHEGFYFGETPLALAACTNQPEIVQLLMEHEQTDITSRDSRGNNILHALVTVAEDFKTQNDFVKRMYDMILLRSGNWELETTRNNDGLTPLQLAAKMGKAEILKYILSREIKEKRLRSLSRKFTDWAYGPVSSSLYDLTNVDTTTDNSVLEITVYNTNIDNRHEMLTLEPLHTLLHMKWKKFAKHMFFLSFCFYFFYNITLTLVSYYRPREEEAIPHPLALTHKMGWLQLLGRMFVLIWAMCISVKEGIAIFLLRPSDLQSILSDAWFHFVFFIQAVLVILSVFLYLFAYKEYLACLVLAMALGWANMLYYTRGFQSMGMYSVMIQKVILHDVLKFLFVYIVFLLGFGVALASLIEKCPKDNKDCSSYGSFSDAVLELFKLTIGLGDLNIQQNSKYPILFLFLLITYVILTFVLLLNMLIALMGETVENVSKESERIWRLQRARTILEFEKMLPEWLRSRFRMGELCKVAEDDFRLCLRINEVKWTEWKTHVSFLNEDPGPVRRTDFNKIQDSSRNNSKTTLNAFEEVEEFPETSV
Assay: 45Calcium uptake assay: inhibition of 2-APB induced cellular uptake of radioactive calcium
Assay type: cell-based
Details: 2-APB 500 μM; for Percentage inhibition at 1.0 μM / inhibition at 1 µM: compound at 1.0 μM; for Percentage inhibition at 10.0 μM / inhibition at 10 µM: compound at 10.0 μM; for inhibition at 1 µM: read-out: Percentage inhibition at 1.0 μM; for inhibition at 10 µM: read-out: Percentage inhibition at 10.0 μM; for IC50: class symbols
From the text: Certain illustrative compounds within the scope of the present invention are screened for TRPV3 activity according to a modified procedure described in (a) Tóth, A. et al. Life Sciences 2003, 73, 487-498. (b) McNamara C, R. et al. Proc. Natl. Acad. Sci. U.S.A., 2007, 104, 13525-13530. The screening of the compounds may be carried out by other methods and procedures known to persons skilled in the art.
Screening for TRPV3 Antagonist Using the ^45Calcium Uptake Assay
The inhibition of TRPV3 receptor activation was followed as inhibition of 2-aminoethxydiphenylborate (2-APB) induced cellular uptake of radioactive calcium. Test compounds were dissolved in dimethyl sulfoxide (DMSO) to prepare 20 mM stock solution and then diluted using plain medium with DMEM/F-12 containing 1.8 mM CaCl2 to get desired concentration. Final concentration of DMSO in the reaction was 0.5% (v/v). Human TRPV3 expressing CHO cells were grown in DMEM/F-12 medium with 10% FBS, 1% penicillin-streptomycin solution, 400 μg/mL of G-418. Cells were seeded 24 h prior to the assay in 96 well plates so as to get ˜50,000 cells per well on the day of experiment. Cells were treated with test compounds for 10 minutes followed by addition of 2-APB at a final concentration of 500 μM and 5 μCi/mL ^45Ca^+2 for 4 minutes. Cells were washed and lysed using buffer containing 1% Triton X-100, 0.1% deoxycholate and 0.1% SDS. Radioactivity in the lysate was measured in Packardt Top count after addition of liquid scintillant. Concentration response curves were plotted as a % of maximal response obtained in the absence of test antagonist. IC50 value was calculated from concentration response curve by nonlinear regression analysis using GraphPad PRISM software.
Percentage inhibition at concentrations of 1.0 μM and 10.0 μM are given in the table along with IC50 (nM) details for selected examples.

inhibition at 1 µM	inhibition at 10 µM	IC50	Compound	Percentage inhibition at 1.0 μM	Percentage inhibition at 10.0 μM
69.3%	80.6%	0.25 to 1 µM	COc1cccc(/C=C/c2nc3sccn3c2C(=O)Nc2nc(C)cs2)c1OCC(C)(C)C [Example 10, 6-{(E)-2-[2-(2,2-Dimethylpropoxy)-3-methoxyphenyl]vinyl}-N-(4-methyl-1,3-thiazol-2-yl)imidazo[2,1-b][1,3]thiazole-5-carboxamide]	–	–
75.1%	84.8%	< 0.1 µM	CCN(C(=O)c1c(/C=C/c2cccc(OC)c2OCC(C)(C)C)nc2sccn12)c1nc(C(F)(F)F)cs1 [Example 11, N-Ethyl-6-{(E)-2-[2-(2,2-dimethylpropoxy)-3-methoxyphenyl]vinyl}-N-[4-(trifluoro-methyl)-1,3-thiazol-2-yl]imidazo[2,1-b][1,3]thiazole-5-carboxamide]	–	–
13.3%	82.8%	–	COc1cccc(/C=C/c2nc3sccn3c2C(=O)Nc2nnc(C(F)(F)F)s2)c1OCC(C)(C)C [Example 12, 6-{(E)-2-[2-(2,2-Dimethylpropoxy)-3-methoxyphenyl]vinyl}-N-[5-(trifluoromethyl)-1,3,4-thiadiazol-2-yl]imidazo[2,1-b][1,3]thiazole-5-carboxamide]	–	–
20.7%	26.6%	–	COc1cccc(/C=C/c2nc3sccn3c2C(=O)Nc2nc(-c3ccc(C#N)cc3)cs2)c1OCC(C)(C)C [Example 15, N-[4-(4-Cyanophenyl)-1,3-thiazol-2-yl]-6-{(E)-2-[2-(2,2-dimethylpropoxy)-3-methoxyphenyl]vinyl}imidazo[2,1-b][1,3]thiazole-5-carboxamide]	–	–
81.7%	93.1%	0.25 to 1 µM	COc1cccc(/C=C/c2nc3sccn3c2C(=O)Nc2nc(C(F)(F)F)cs2)c1OC1CCCC1 [Example 16, 6-[(E)-2-(2-Cyclopentyloxy-3-methoxyphenyl)vinyl]-N-[4-(trifluoromethyl)-1,3-thiazol-2-yl]imidazo[2,1-b][1,3]thiazole-5-carboxamide]	–	–
85.3%	94.6%	0.25 to 1 µM	O=C(Nc1nc(C(F)(F)F)cs1)c1c(/C=C/c2cccc(OC(F)F)c2OC2CCCC2)nc2sccn12 [Example 17, 6-{(E)-2-[2-Cyclopentyloxy-3-(difluoromethoxy)phenyl]vinyl}-N-[4-(trifluoromethyl)-1,3-thiazol-2-yl]imidazo[2,1-b][1,3]thiazole-5-carboxamide]	–	–
96.9%	98.2%	< 0.1 µM	CC(C)(C)COc1c(/C=C/c2nc3sccn3c2C(=O)Nc2nc(C(F)(F)F)cs2)cccc1OC(F)F [Example 18, 6-{(E)-2-[3-Difluoromethoxy-2-(2,2-dimethylpropoxy)phenyl]vinyl}-N-[4-(trifluoro-methyl)-1,3-thiazol-2-yl]imidazo[2,1-b][1,3]thiazole-5-carboxamide]	–	–
13.9%	4.88%	–	O=C(Nc1nc(C(F)(F)F)cs1)c1c(/C=C/c2cccc(O)c2O)nc2sccn12 [Example 19, 6-[(E)-2-(2,3-Dihydroxyphenyl)vinyl]-N-[4-(trifluoromethyl)-1,3-thiazol-2-yl]imidazo[2,1-b][1,3]thiazole-5-carboxamide]	–	–
53.3%	81.7%	–	CC(C)c1csc(NC(=O)c2c(/C=C/c3cccc(OC(F)F)c3OCC(C)(C)C)nc3sccn23)n1 [Example 20, 6-{(E)-2-[2-(2,2-Dimethylpropoxy)-3-(difluoromethoxy)phenyl]vinyl}-N-(4-isopropyl-1,3-thiazol-2-yl)imidazo[2,1-b][1,3]thiazole-5-carboxamide]	–	–

Continued, compound first:

Compound	inhibition at 1 µM	inhibition at 10 µM	IC50	Percentage inhibition at 1.0 μM	Percentage inhibition at 10.0 μM
2-{(E)-2-[3-(Difluoromethoxy)-2-(2,2-dimethylpropoxy)phenyl]vinyl}-N-[4-(trifluoro-methyl)-1,3-thiazol-2-yl]imidazo[1,2-c]pyridine-3-carboxamide [Example 38]	–	–	–	87.67%	97.11%
COc1cccc(/C=C/c2nc3sccn3c2C(=O)Nc2ccc(OC(F)(F)F)cc2)c1OCC1CC1 [Example 1, 6-[(E)-2-(2-Cyclopropylmethoxy-3-methoxyphenyl)vinyl]-N-[4-(trifluoromethoxy)phenyl]imidazo[2,1-b][1,3]thiazole-5-carboxamide]	9.3%	38.6%	–	–	–
COc1cccc(/C=C/c2nc3sccn3c2C(=O)Nc2nc(C(F)(F)F)cs2)c1OCC1CC1 [Example 2, 6-[(E)-2-(2-Cyclopropylmethoxy-3-methoxyphenyl)vinyl]-N-[4-(trifluoromethyl)-1,3-thiazol-2-yl]imidazo[2,1-b][1,3]thiazole-5-carboxamide]	73.2%	97.6%	0.25 to 1 µM	–	–
COc1cccc(/C=C/c2nc3sccn3c2C(=O)N2CCCc3ccccc32)c1OCC1CC1 [Example 3, 1-({6-[(E)-2-(2-Cyclopropylmethoxy-3-methoxyphenyl)vinyl]imidazo[2,1-b][1,3]thiazol-5-yl}carbonyl)-1,2,3,4-tetrahydroquinoline]	34.6%	90.6%	–	–	–
COc1cccc(/C=C/c2nc3sccn3c2C(=O)N2CCN(c3ccc(C(F)(F)F)cn3)CC2)c1OCC1CC1 [Example 4, 6-[(E)-2-(2-Cyclopropylmethoxy-3-methoxyphenyl)vinyl]imidazo[2,1-b][1,3]thiazol-5-yl-4-(5-trifluoromethyl-2-pyridyl)piperazinomethanone]	36.2%	91.7%	–	–	–
COc1cccc(/C=C/c2nc3sccn3c2C(=O)N2CCN(c3ccc(C#N)cn3)CC2)c1OCC1CC1 [Example 5]	5.32%	38.2%	–	–	–
COc1cccc(/C=C/c2nc3sccn3c2C(=O)Nc2nc(C(F)(F)F)cs2)c1OCC(C)C [Example 6, 6-{(E)-2-[2-(Isobutoxy)-3-methoxyphenyl]vinyl}-N-[4-(trifluoromethyl)-1,3-thiazol-2-yl]imidazo[2,1-b][1,3]thiazole-5-carboxamide]	93%	98.8%	0.25 to 1 µM	–	–
COc1cccc(/C=C/c2nc3sccn3c2C(=O)Nc2nc(C(F)(F)F)cs2)c1OCC(C)(C)C [Example 7, 6-{(E)-2-[2-(2,2-Dimethylpropoxy)-3-methoxyphenyl]vinyl}-N-[4-(trifluoromethyl)-1,3-thiazol-2-yl]imidazo[2,1-b][1,3]thiazole-5-carboxamide]	95.5%	99.5%	< 0.1 µM	–	–
COc1cccc(/C=C/c2nc3sccn3c2C(=O)Nc2nc(C(C)(C)C)cs2)c1OCC(C)(C)C [Example 8, 6-{(E)-2-[2-(2,2-Dimethylpropoxy)-3-methoxyphenyl]vinyl}-N-[4-(tert-butyl)-1,3-thiazol-2-yl]imidazo[2,1-b][1,3]thiazole-5-carboxamide]	88.1%	91.1%	< 0.1 µM	–	–
COc1cccc(/C=C/c2nc3sccn3c2C(=O)Nc2nc(C(F)(F)F)co2)c1OCC(C)(C)C [Example 13, 6-{[(E)-2-(2,2-Dimethylpropoxy)-3-methoxyphenyl]vinyl}-N-[4-(trifluoromethyl)-1,3-oxazol-2-yl]imidazo[2,1-b][1,3]thiazole-5-carboxamide]	–	–	–	10.75%	31.51%
COc1cccc(/C=C/c2nc3sccn3c2C(=O)N2CCn3c(nnc3C(F)(F)F)C2)c1OCC(C)(C)C [Example 14]	–	–	–	10.33%	15.45%

Reference: patent publication US8318928B2, “Fused imidazole carboxamides as TRPV3 modulators” (Glenmark Pharmaceuticals, S.A., priority 2008, dated 2012)
